{"source": "paper PMC9106635", "about": "“Stimulation of the atypical chemokine receptor 3 (ACKR3) by a small-molecule agonist attenuates fibrosis in a preclinical liver but not lung injury model” (Cellular and Molecular Life Sciences: CMLS, 2022)", "key": {"[1]": {"tested_on": "CCl4-induced liver fibrosis in C57BL/6J mice", "assay": "CCl4-induced liver fibrosis model", "assay_type": "in vivo, mouse", "conditions": "45 mg/kg/dose PO QD, day 28, vs CCl4 + captisol; P < 0.0001 and P = 0.004", "description": "A preclinical mouse model for CCl4-induced liver fibrosis was performed at the Department of Metabolic Health Research, The Netherlands Organisation for Applied Scientific Research (TNO) (Leiden, The Netherlands). Fifty-two male C57BL/6J mice were matched on body weight prior to the study and divided into five groups (experimental study design, Supplementary Figure S1a). Starting at day 0, 10–12-week-old mice were intraperitoneally (i.p.) injected (three times a week) with mineral oil (group 1) or CCl4 (15% v/v in mineral oil, group 2–5) for a total of 28 days. At day 0, mice received subcutaneous treatment with compound 18a (15 mg/kg/dose, twice daily (BID), group 3), or corresponding vehicle control (23% HPBCD, twice daily (BID), groups 1 and 2)], or received daily gavage with either an ALK5/ALK4 kinase inhibitor [SM 16 (45 mg/kg/dose, PO, QD, group 5) or its corresponding vehicle control (β-cyclodextrin sulfobutyl ether sodium salt or captisol, PO, QD, group 4)]. Plasma samples were collected by a tail vein bleed at day 7. At day 28, mice were sacrificed using CO2 and additional plasma samples and liver lobes were collected. As a primary endpoint collagen surface area was determined on cross-sections of the lateral left lobe by picro sirius red (PSR) staining. As a secondary endpoint collagen content (hydroxyproline) of the left median lobe was analyzed using a chromogenic assay according to the manufacturer’s instructions (QuickZyme Biosciences, Leiden, The Netherlands)."}, "[2]": {"tested_on": "mouse CXCL12 plasma levels", "assay": "Mouse CXCL12 plasma determination (Bio-Plex)", "assay_type": "in vivo", "conditions": "liver fibrosis model, day 28, 45 mg/kg/dose PO QD", "description": "CXCL12 plasma levels were determined using Bio-Plex Pro Mouse Chemokine SDF-1a/CXCL12 (Bio-Rad) according to the manufacturer’s protocol. Prior to the assay mouse plasma samples were centrifuged for 15 min at 1000×g at 4 °C to remove any particulates. A four-fold dilution series of mouse CXCL12, blank samples and 1:5 diluted plasma samples were prepared. A 1:1 mixture of magnetic beads (50 µL/well) and sample (50 µL/well) was added to the 96-well assay plate, which was then sealed and incubated (30 min at RT) on a plate shaker at 850 rpm protected from light. After washing three times with wash buffer 25 µL/well detection antibody was added and the plate was again incubated as described above. The plate was again washed three times (100 µL/well wash buffer) followed by the addition of streptavidin-PE (50 µL/well). The plate was sealed and incubated (10 min at RT) at 850 rpm protected from light. Finally, the plate was again washed three times and the magnetic beads were resuspended in fresh assay buffer (152 µL/well). The plate was sealed and shaken for an additional 30 s before being analyzed with the Bioplex 200 System. Data were analyzed with the Bio-Plex Manager Software."}}, "data": [{"smiles": "Cc1cccc(-c2[nH]c(C34CCC(C(N)=O)(CC3)CC4)nc2-c2ccc3c(c2)OCO3)n1", "note": "[SM 16, reference compound]", "values": [{"measurement": "liver fibrosis: PSR-positive area and hydroxyproline content", "setting": "[1]", "value": "significantly attenuated liver fibrosis"}, {"measurement": "plasma CXCL12 levels", "setting": "[2]", "value": "no further increase of plasma CXCL12 was observed"}]}]}
